Like-named read-outs stand apart in the source and are kept apart here.
Test: Topical administration (eye drops) of formulation #340, rapamycin levels in blood, cornea, retina choroid, sclera and vitreous (Tables 3-6)
Type: in vivo
Settings: rabbit, formulation #340 topical; for concentration at 8 day / concentration at 10 day / concentration at 12 day / concentration at 14 day: Group III (two drops once a day on both eyes for 6 days)
Method: Both eyes (or one eye depending on the study) of each animal received one or two drops (40 μl per drop) of the studied formulations using a calibrated pipette on day 0 (day of dosing).
For Tables 3-6, the solution of Example 46 (formulation #340) was administered two drops twice a day on both eyes, one time for Group I, two drops once a day on one eye, one time for Group II, and two drops once a day on both eyes for 6 days in Group III. In Group II, the right eye (OD) but not the left eye (OS) received eye drops. In a further study, one drop of the formulation #340 (40 μL containing 880 μg rapamycin) was administered on day zero.

CO[C@H]1C[C@@H]2CC[C@@H](C)[C@@](O)(O2)C(=O)C(=O)N2CCCC[C@H]2C(=O)O[C@H]([C@H](C)C[C@@H]2CC[C@@H](O)[C@H](OC)C2)CC(=O)[C@H](C)/C=C(\C)[C@@H](O)[C@@H](OC)C(=O)[C@H](C)C[C@H](C)/C=C/C=C/C=C/1C [Rapamycin, rapamycin]
concentration at 1 day (sclera, 2 drops (40 μl per drop) on one eye (right eye, OD), Group II (two drops once a day on one eye, one time), OD, day 1, n = 1, read-out: Rapamycin level, sclera): 421 ng/g | concentration at 2 day (sclera, 2 drops (40 μl per drop) on one eye (right eye, OD), Group II (two drops once a day on one eye, one time), OD, day 2, n = 1, read-out: Rapamycin level, sclera): 1350 ng/g | concentration at 3 day (sclera, 2 drops (40 μl per drop) on one eye (right eye, OD), Group II (two drops once a day on one eye, one time), OD, day 3, n = 1, read-out: Rapamycin level, sclera): 541 ng/g | concentration at 1 day (sclera, 2 drops (40 μl per drop) on one eye (right eye, OD), Group II (two drops once a day on one eye, one time), OS, day 1, n = 1, read-out: Rapamycin level, sclera): 34.2 ng/g | concentration at 2 day (sclera, 2 drops (40 μl per drop) on one eye (right eye, OD), Group II (two drops once a day on one eye, one time), OS, day 2, n = 1, read-out: Rapamycin level, sclera): 144 ng/g | concentration at 3 day (sclera, 2 drops (40 μl per drop) on one eye (right eye, OD), Group II (two drops once a day on one eye, one time), OS, day 3, n = 1, read-out: Rapamycin level, sclera): 104 ng/g | concentration at 8 day (sclera, 2 drops (40 μl per drop) per eye, both eyes, day 8, n = 2, read-out: Rapamycin level, sclera): 895 ng/g | concentration at 10 day (sclera, 2 drops (40 μl per drop) per eye, both eyes, day 10, n = 2, read-out: Rapamycin level, sclera): 613 ng/g | concentration at 12 day (sclera, 2 drops (40 μl per drop) per eye, both eyes, day 12, n = 2, read-out: Rapamycin level, sclera): 131 ng/g | concentration at 14 day (sclera, 2 drops (40 μl per drop) per eye, both eyes, day 14, n = 2, read-out: Rapamycin level, sclera): 420 ng/g | concentration at 1 day (sclera, 2 drops (40 μl per drop) per eye, both eyes, twice a day, Group I (two drops twice a day on both eyes, one time), day 1, n = 2, read-out: Rapamycin level, sclera): 90.8 ng/g | concentration at 2 day (sclera, 2 drops (40 μl per drop) per eye, both eyes, twice a day, Group I (two drops twice a day on both eyes, one time), day 2, n = 2, read-out: Rapamycin level, sclera): 751 ng/g | concentration at 3 day (sclera, 2 drops (40 μl per drop) per eye, both eyes, twice a day, Group I (two drops twice a day on both eyes, one time), day 3, n = 2, read-out: Rapamycin level, sclera): 351 ng/g | concentration at 1 day (vitreous, 2 drops (40 μl per drop) on one eye (right eye, OD), Group II (two drops once a day on one eye, one time), OD, day 1, n = 1, read-out: Rapamycin level, vitreous): 2.06 ng/mL | concentration at 2 day (vitreous, 2 drops (40 μl per drop) on one eye (right eye, OD), Group II (two drops once a day on one eye, one time), OD, day 2, n = 1, read-out: Rapamycin level, vitreous): 5.01 ng/mL | concentration at 3 day (vitreous, 2 drops (40 μl per drop) on one eye (right eye, OD), Group II (two drops once a day on one eye, one time), OD, day 3, n = 1, read-out: Rapamycin level, vitreous): 3.96 ng/mL | concentration at 1 day (vitreous, 2 drops (40 μl per drop) on one eye (right eye, OD), Group II (two drops once a day on one eye, one time), OS, day 1, n = 1, read-out: Rapamycin level, vitreous): 1 ng/mL | concentration at 2 day (vitreous, 2 drops (40 μl per drop) on one eye (right eye, OD), Group II (two drops once a day on one eye, one time), OS, day 2, n = 1, read-out: Rapamycin level, vitreous): 2.95 ng/mL | concentration at 3 day (vitreous, 2 drops (40 μl per drop) on one eye (right eye, OD), Group II (two drops once a day on one eye, one time), OS, day 3, n = 1, read-out: Rapamycin level, vitreous): 4 ng/mL | concentration at 8 day (vitreous, 2 drops (40 μl per drop) per eye, both eyes, day 8, n = 2, read-out: Rapamycin level, vitreous): 19.7 ng/mL | concentration at 10 day (vitreous, 2 drops (40 μl per drop) per eye, both eyes, day 10, n = 2, read-out: Rapamycin level, vitreous): 7.9 ng/mL | concentration at 12 day (vitreous, 2 drops (40 μl per drop) per eye, both eyes, day 12, n = 2, read-out: Rapamycin level, vitreous): 1.46 ng/mL | concentration at 14 day (vitreous, 2 drops (40 μl per drop) per eye, both eyes, day 14, n = 2, read-out: Rapamycin level, vitreous): 5.66 ng/mL | concentration at 1 day (vitreous, 2 drops (40 μl per drop) per eye, both eyes, twice a day, Group I (two drops twice a day on both eyes, one time), day 1, n = 2, read-out: Rapamycin level, vitreous): 1.24 ng/mL | concentration at 2 day (vitreous, 2 drops (40 μl per drop) per eye, both eyes, twice a day, Group I (two drops twice a day on both eyes, one time), day 2, n = 2, read-out: Rapamycin level, vitreous): 5.41 ng/mL | concentration at 3 day (vitreous, 2 drops (40 μl per drop) per eye, both eyes, twice a day, Group I (two drops twice a day on both eyes, one time), day 3, n = 2, read-out: Rapamycin level, vitreous): 3.03 ng/mL

Source: patent US8663639B2, “Formulations for treating ocular diseases and conditions” (Santen Pharmaceutical Co., Ltd., priority 2005, dated 2014)
